# Measured values published in patent US7868135B2, “Compositions of lipopeptide antibiotic derivatives and methods of use thereof” (priority 2003, dated 2011).
# Tests used:
# [1] = tested on: Streptococcus pneumoniae (SPN032, ATCC 1081); test: Intranasal murine lung infection model; format: in vivo; settings: Swiss CD1 mice, i.n. S. pneumoniae, i.v. treatment at 3, 24 and 48 hours post-infection, deaths over ten days
# Method: Other exemplary in vivo models of infection that may be used to assess, for example, the efficacy of an antimicrobial lipopeptide of the instant disclosure include the following: (A) a mouse (murine) model of lung infection (pneumonia) wherein the bacterial infection is administered intranasally (i.n.); (B) a murine thigh muscle model wherein the bacterial infection is administered intramuscularly (i.m.) in normal or neutropenic (immunocompromised) mice; and (C) a combination murine thigh muscle model (i.m. infection)/lung (i.n.) infection.
# Antimicrobial lipopeptide derivatives of the instant invention were tested for antimicrobial activity against Gram-positive bacteria in an intranasal (i.n.) murine lung infection model (i.e., bacteria were innoculated i.n. and lipopeptide compounds were administered i.v.). Streptococcus pneumoniae (SPN032, ATCC 1081) were grown on 5% sheep blood agar plates for 24 h at 37° C., harvested and then resuspended in 0.9% saline. A group of eight Swiss CD1 mice were sedated with 2% isoflurane, and each was infected i.n. dropwise to the nares with 50 μl of the prepared bacterial inoculum (i.e., a dose of about 10^6 CFU/mouse). […] The ED50 (mg/kg) for each compound was calculated using the method of Reed and Meunch (Am. J. Hyg. 27: 493, 1938).
# [2] = tested on: Streptococcus pneumoniae (SPN0002); test: Lung infection model in neutropenic mice; format: in vivo
# Method: Antimicrobial lipopeptide derivatives of the instant invention were tested for antimicrobial activity against Gram-positive bacteria in an intranasal (i.n.), immunocomprimised murine lung infection model (i.e., bacteria were innoculated i.n. and lipopeptide compounds were administered i.v.). Streptococcus pneumoniae (SPN0002) were grown on 5% sheep blood agar plates for 24 h at 37° C., harvested and then resuspended in 0.9% saline. A group of three to four Swiss CD1 mice were rendered neutropenic by administration of cyclophosphamide (Sigma Chemical Co.; 150 mg/kg, i.p.) on day −4 and −1 before infection. At time −18 to −24 hours, each mouse was infected i.n. dropwise via the nares with 50 μl of the prepared bacterial inoculum (i.e., a dose of about 5×10^6 CFU/mouse). At 18 to 24 hours post-infection, the groups of mice received i.v. (1) a lipopeptide derivative formulated in a 5% D-mannitol solution at a dose of about 1 mg/kg, 3 mg/kg, 10 mg/kg, or 30 mg/kg; (2) the 5% mannitol vehicle alone at a dose volume of 10 mL/kg; or (3) a known antibiotic, such as ampicillin, at a similar dose as the lipopeptide compounds. At 18 to 24 hours post-antibiotic treatment, mice were sacrificed and lungs harvested. Lungs were sampled by spreading homogenates on blood agar plates and incubating for 24 h at 37° C., and then counting the number of CFU. The EKill (killing effect; i.e., log10 CFU/lung reduction as compared to CFU count at intial treatment time) and the EMax (maximum reduction effect; i.e., log10 CFU/lung reduction as compared to CFU count of control at 24 hours) for each compound was calculated.
# [3] = tested on: Staphylococcus aureus (MSSA); settings: 24 h
# How it was run: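 Broth microdilution MIC per NCCLS M7-A6 with doubling serial dilutions, in cation-adjusted Mueller-Hinton broth supplemented with 0.625 mM calcium.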
compound,measurement,setting,value
"CCCCCCCCCCCCCCC(=O)NC(CC(=O)O)C(=O)NC1C(=O)N2CCCCC2C(=O)NC(C(C)C(=O)O)C(=O)NC(CC(=O)O)C(=O)NCC(=O)NC(CC(=O)O)C(=O)NCC(=O)NC(C(C)NC(=O)CNC(=O)[C@@H](N)CCCCN)C(=O)NC(C(C)C)C(=O)N2CCCC2C(=O)NC1C (stereo partly shown) [Compound 4, C15-Amphomycin-9-Gly-Lys]",ED50,[1],1.3 mg/kg
"CCCCCCCCCCCCCCC(=O)NC(CC(=O)O)C(=O)NC1C(=O)N2CCCCC2C(=O)NC(C(C)C(=O)O)C(=O)NC(CC(=O)O)C(=O)NCC(=O)NC(CC(=O)O)C(=O)NCC(=O)NC(C(C)NC(=O)CCN)C(=O)NC(C(C)C)C(=O)N2CCCC2C(=O)NC1C (stereo not drawn) [Compound 147, C15-Amphomycin-9-(β-Ala)]",EKill (log10 CFU/lung reduction versus count at initial treatment time),[2]; 30 mg/kg i.v.,3.2 log10 CFU/lung
same,"log10 CFU/lung reduction (EMax, versus control at 24 hours)",[2]; highest dose level 30 mg/kg i.v.,4.0 log10 CFU/lung
"CCCCCCCCCCCCCCC(=O)NC(CC(=O)O)C(=O)NC1C(=O)N2CCCCC2C(=O)NC(C(C)C(=O)O)C(=O)NC(CC(=O)O)C(=O)NCC(=O)NC(CC(=O)O)C(=O)NCC(=O)NC(C(C)NC(=O)CN(C)C(=O)[C@@H](N)CCCCN)C(=O)NC(C(C)C)C(=O)N2CCCC2C(=O)NC1C (stereo partly shown) [Compound 199, C15-Amphomycin-9-Sar-Lys]",MIC,[3],0.5 to 1 µg/mL
